Test results as given in patent US12503426B2, “Synthetic derivatives of oleoyl-lysophosphatidylinositol (oleoyl-LPI) and uses thereof” (LIPOVEXA SRL, priority 2017, dated 2025).

What was measured:
[1] = system: colonic cells of the GI tract obtained from guinea pig; experiment: Ex vivo GLP-1 biosynthesis and secretion, guinea pig GI tract cells; assay type: cell-based
Procedure, shortened: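 Colonic/rectal crypts and cells from a pregnant guinea pig, collagenase-P digested and cultured one day on Matrigel, then exposed 2 h at 37 °C in serum-free DMEM with KR-62436 10 μg/ml and compound (20 μM, quadruplicate; EC50 also determined). Active GLP-1 in supernatant measured by ELISA, normalised to DMSO control.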

[2] = system: primary culture of mixed colonic preparations; experiment: GLP-1 secretion by mixed primary colonic culture; assay type: cell-based, mice
Description: Mice were euthanized, and 5 cm of colon were used for isolation of epithelial cells following as previously described by Reimann, F., Habib, A. M., Tolhurst, G., Parker, H. E., Rogers, G. J., & Gribble, F. M. (2008), Cell Metabolism, Vol 8(6), pp 532-539, the disclosure of which is incorporated herein by reference in its entirety. Briefly, colon segments were dissected from 10 week-old C57BL/6 male mice. Segments were cut open longitudinally and washed quickly in DMEM (serum-free) to remove luminal contents. Colon was chopped into about 1-2 mm pieces and digested with about 0.5 mg/ml collagenase-P for 15 min. Resulting cell suspensions were filtered through 70 μm nylon cell strainers (BD Falcon, UK), centrifuged at 300 g for 5 min, and pellets re-suspended in DMEM supplemented with 10% FBS. The purified cells were collected and cultured on 24-well Matrigel-coated plates at 37° C. in DMEM (25 mM glucose), 10% FBS, 2 mM L-glutamine, 1% penicillin/streptomycin. On the day of GLP-1 assay, cells were washed twice with PBS, and then treated with LPI or vehicle Methanol: Chloroform, (M:C), v/v for 2 h at 37° C. Supernatants were collected for GLP-1 quantification using the active GLP-1 ELISA kit from Millipore. […]

Substance: oleoyl-lysophosphatidylinositol [oleoyl-LPI]
- GLP-1 biosynthesis and secretion ex vivo ([1]; 20 μM, 2 hours, standardized against DMSO control): stimulated biosynthesis and secretion
- EC50 ([1]; ex vivo incubation 2 hours, quadruplicates): 32.7 µM
- GLP-1 release ([2]; GPR119−/− mice compared to wild type control): unable to induce GLP-1 release
- GLP-1 levels, from the basal secretion ([2]; wild type mice, two hours treatment): 131±32%
